According to patent US20260070945A1, “MACROCYCLIC IMMUNOMODULATORS” (Bristol-Myers Squibb Company, priority 2022, published 2026):
pIC50: −log10 of the molar value. Where a SMILES comes first, the peptide text is derived from it. Bridges are numbered along the chain shown (N, C = ends). [ ]: non-standard residue; d: D form. The star is where a group is joined. Bip = N[C@@H](Cc1ccc(-c2ccccc2)cc1)C(=O)O; Cha = N[C@@H](CC1CCCCC1)C(=O)O; Carboxymethyl = O=C(O)C*; NMeA = CN[C@@H](C)C(=O)O; Orn = NCCC[C@H](N)C(=O)O; Aun = NCCCCCCCCCCC(=O)O; Dab = NCC[C@H](N)C(=O)O; AEEA = NCCOCCOCC(=O)O

Target: T1, PD-1/PD-L1 interaction (PE-labeled human PD-L1-Ig binding to Jurkat cell line over-expressing human PD-1) (Homo sapiens, UniProt Q15116)
T1 construct: expressed in transfected cells; host or cells: Jurkat
T1 sequence (Q15116 25-288): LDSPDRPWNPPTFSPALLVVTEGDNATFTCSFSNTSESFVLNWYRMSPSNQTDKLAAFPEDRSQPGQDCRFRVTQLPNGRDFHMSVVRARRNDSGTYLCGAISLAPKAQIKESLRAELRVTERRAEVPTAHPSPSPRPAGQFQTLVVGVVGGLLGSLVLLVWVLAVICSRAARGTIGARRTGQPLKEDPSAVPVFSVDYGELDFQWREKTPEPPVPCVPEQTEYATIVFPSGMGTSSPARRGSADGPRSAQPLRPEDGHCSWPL
Test: Jurkat-PD-1 Cell Binding High-Content Screening Assay (CBA)
Conditions: Jurkat-hPD-1 cells, PE-labeled PD-L1-Ig 20 nM final; read-out: Jurkat HPD1 PDL1 IC50
Summary of the method: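 High-content imaging read-out of PE-PD-L1-Ig binding (20 nM final, 1 h) to Jurkat-hPD-1 cells, after 2 h compound exposure at 37 °C in DMEM with 10% FCS. Nuclei counterstained with Hoechst 33342 after paraformaldehyde fixation.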

First: CC(C)C[C@H]1NC(=O)[C@H](C)N(C)C(=O)[C@H](Cc2ccc(OCC(=O)O)cc2)NC(=O)[C@H](Cc2ccc(-c3ccccc3)cc2)NC(=O)[C@H](Cc2ccc(OCC(=O)O)cc2)NC(=O)[C@H](Cc2c[nH]c3ccccc23)NC(=O)[C@H](CC(=O)O)NC(=O)[C@H](Cc2ccc(OCC(=O)O)cc2)NC(=O)[C@H]([C@@H](C)O)NC(=O)CSC[C@@H](C(=O)N[C@@H](CCN)C(=O)NCCOCCOCC(=O)NCCCCCCCCCCC(=O)O)NC(=O)[C@H](CCC(=O)O)NC(=O)[C@H](C(C)C)NC(=O)[C@H](CC2CCCCC2)NC(=O)[C@H](CC(N)=O)NC1=O [Example 1386] ({CH2CO}-TY(Carboxymethyl)DWY(Carboxymethyl)[Bip]Y(Carboxymethyl)[NMeA][dL]N[Cha]VEC[Dab][AEEA][Aun]-OH; thioether N-14)
Second: CC(C)C[C@H]1NC(=O)[C@H](C)N(C)C(=O)[C@H](Cc2ccc(OCC(=O)O)cc2)NC(=O)[C@H](Cc2ccc(-c3ccccc3)cc2)NC(=O)[C@H](Cc2ccc(OCC(=O)O)cc2)NC(=O)[C@H](Cc2c[nH]c3ccccc23)NC(=O)[C@H](CC(=O)O)NC(=O)[C@H](Cc2ccc(OCC(=O)O)cc2)NC(=O)[C@H]([C@@H](C)O)NC(=O)CSC[C@@H](C(=O)N[C@@H](CCCN)C(=O)NCCOCCOCC(=O)NCCCCCCCCCCC(=O)O)NC(=O)[C@H](CCC(=O)O)NC(=O)[C@H](C(C)C)NC(=O)[C@H](CC2CCCCC2)NC(=O)[C@H](CC(N)=O)NC1=O [Example 1388] ({CH2CO}-TY(Carboxymethyl)DWY(Carboxymethyl)[Bip]Y(Carboxymethyl)[NMeA][dL]N[Cha]VEC[Orn][AEEA][Aun]-OH; thioether N-14)
The pIC50 of the first is 0.68 log units higher: 6.86 for the first, 6.18 for the second. The first is the more potent here.

First: CC(C)C[C@H]1NC(=O)[C@H](C)N(C)C(=O)[C@H](Cc2ccc(OCC(=O)O)cc2)NC(=O)[C@H](Cc2ccc(-c3ccccc3)cc2)NC(=O)[C@H](Cc2ccc(OCC(=O)O)cc2)NC(=O)[C@H](Cc2c[nH]c3ccccc23)NC(=O)[C@H](CC(=O)O)NC(=O)[C@H](Cc2ccc(OCC(=O)O)cc2)NC(=O)[C@H]([C@@H](C)O)NC(=O)CSC[C@@H](C(=O)N[C@@H](CCCN)C(=O)NCCOCCOCC(=O)NCCCCCCCCCCC(=O)O)NC(=O)[C@H]([C@@H](C)O)NC(=O)[C@H](C(C)C)NC(=O)[C@H](CC2CCCCC2)NC(=O)[C@H](CC(N)=O)NC1=O [Example 1387] ({CH2CO}-TY(Carboxymethyl)DWY(Carboxymethyl)[Bip]Y(Carboxymethyl)[NMeA][dL]N[Cha]VTC[Orn][AEEA][Aun]-OH; thioether N-14)
Second: CC(C)C[C@H]1NC(=O)[C@H](C)N(C)C(=O)[C@H](Cc2ccc(OCC(=O)O)cc2)NC(=O)[C@H](Cc2ccc(-c3ccccc3)cc2)NC(=O)[C@H](Cc2ccc(OCC(=O)O)cc2)NC(=O)[C@H](Cc2c[nH]c3ccccc23)NC(=O)[C@H](CC(=O)O)NC(=O)[C@H](Cc2ccc(OCC(=O)O)cc2)NC(=O)[C@H]([C@@H](C)O)NC(=O)CSC[C@@H](C(=O)N[C@@H](CCCN)C(=O)NCCOCCOCC(=O)NCCCCCCCCCCC(=O)O)NC(=O)[C@H](CO)NC(=O)[C@H](C(C)C)NC(=O)[C@H](CC2CCCCC2)NC(=O)[C@H](CC(N)=O)NC1=O [Example 1389] ({CH2CO}-TY(Carboxymethyl)DWY(Carboxymethyl)[Bip]Y(Carboxymethyl)[NMeA][dL]N[Cha]VSC[Orn][AEEA][Aun]-OH; thioether N-14)
The pIC50 of the first is 0.24 log units lower: 6.40 for the first, 6.64 for the second.

`CC(C)C[C@H]1NC(=O)[C@H](C)N(C)C(=O)[C@H](Cc2ccc(OCC(=O)O)cc2)NC(=O)[C@H](Cc2ccc(-c3ccccc3)cc2)NC(=O)[C@H](Cc2ccc(OCC(=O)O)cc2)NC(=O)[C@H](Cc2c[nH]c3ccccc23)NC(=O)[C@H](CC(=O)O)NC(=O)[C@H](Cc2ccc(OCC(=O)O)cc2)NC(=O)[C@H]([C@@H](C)O)NC(=O)CSC[C@@H](C(=O)N[C@@H](CCN)C(=O)NCCOCCOCC(=O)NCCCCCCCCCCC(=O)O)NC(=O)[C@H]([C@@H](C)O)NC(=O)[C@H](C(C)C)NC(=O)[C@H](CC2CCCCC2)NC(=O)[C@H](CCN)NC1=O` [Example 1390] ({CH2CO}-TY(Carboxymethyl)DWY(Carboxymethyl)[Bip]Y(Carboxymethyl)[NMeA][dL][Dab][Cha]VTC[Dab][AEEA][Aun]-OH; thioether N-14) showed a pIC50 of 7.56.
